Test results: patent EP1223923B1, “UNSATURATED ARYL SULFONES FOR PROTECTING NORMAL CELLS FROM CYTOTOXICITY OF CHEMOTHERAPEUTIC AGENTS” (Temple University - Of The Commonwealth System of Higher …, priority 1999, dated 2001)

What was measured:
Format in all cases: cell-based
[1] = Plating efficiency (colony-forming ability) of normal human fibroblasts; details: hfl-1 cells, 24 hour incubation with drug, replated, colonies counted after 20 days, read-out: concentration of the drug causing 50% inhibition in plating efficiency
Procedure: HFL-1 cells (normal, human diploid lung fibroblasts) purchased from ATCC were plated after first passage at low density (2.0 x 10^5cells) per well (6 well dishes) in one ml of growth medium (DMEM completed with 10% fetal bovine serum and pen/strep). Twenty-four hours later, (E)-4-fluorostyryl-4-chlorobenzylsulfone was added to each well at the following final concentrations; 0 µM, 2.5. µM, 5.0 µM, 25 µM, 50 µM, and 75 µM. After a 24 hour incubation period, the wells were washed 3x with 5 ml normal growth medium and each well was trypsinized and cell counts were determined. To determine colony-forming ability, the cells from each treatment were then serial diluted and replated into 100mm dishes such that each group was split into 3 replating groups consisting of 10, 100, 200 cells per plate. The groups were plated in triplicate. The cells were incubated for 20 days under normal growth conditions and colonies were counted after staining with modified Wright stain (Sigma). The number of colonies from each plate in triplicate were determined and the average for each group was plotted. The concentration of the drug causing 50% inhibition in plating efficiency was calculated and found to be 70 µM.

HFL-1 cells = experiment: Protection of normal human fibroblasts from anticancer agent cytotoxicity (protection ratio, Trypan blue exclusion); details: 2.0 µM sulfone 24 hour preincubation, viable cells 96 hours after cytotoxic agent
Procedure: HFL-1 cells were plated at a cell density of 1.0 x 10^5 in 1 ml of medium. Twenty-four hours following plating, 2.0 µM of (E)-4-fluorostyryl-4-chlorobenzylsulfone was added to the medium. Following a 24 hour preincubation with the styryl sulfone, the various cytotoxic agents listed in Table 6 were added to the cells, at the concentrations given in Table 6. the number of viable cells was determined by Trypan blue exclusion using a hematocytometer 96 hours after exposure to cytotoxic agent. The "Protection Ratio" is the number of viable cells following treatment with (E)-4-fluorostyryl-4-chlorobenzylsulfone and cytotoxic agent, divided by the number of viable cells remaining after treatment with cytotoxic agent alone. A protection ratio of 2 or more is considered highly significant, while is protection ratio of 1.5-2 is considered less significant. […] Table 6: Protective Effect of (E)-4-Fluorostyryl-4-Chlorobenzylsulfone on HFL-1 Cells Treated with Cytotoxic Drugs

Normal human HFL-1 cells = experiment: Cytoprotection assay against paclitaxel; set-up: key: +: A compound was deemed to be active if the number of viable cells following the combination treatment was higher than the number of cells after treatment with paclitaxel alone; details: 2.0 or 10 µM sulfone; paclitaxel (250 nM) at time zero or 24 hours later; viable cells after 96 hours of paclitaxel
Procedure: The cytoprotective activity of the same styryl benzylsulfones was determined as follows. Normal human HFL-1 cells were plated at a cell density of 1.0 x 10^5 cells per well in six culture plates. Styryl benzylsulfone was added 24 hours later at a final concentration of either 2.0 or 10 µM. The time of styryl sulfone addition was designated as time zero. Paclitaxel (250 nM) was added at either time zero, or 24 hours after time zero. The total number of viable cells was determined, as described above, after 96 hours of paclitaxel treatment. A compound was deemed to be active if the number of viable cells following the combination treatment was higher than the number of cells after treatment with paclitaxel alone. Table 7: Antitumor and Cytoprotective Effect of Styryl Sulfones

O=S(=O)(/C=C/c1ccc(F)cc1)Cc1ccc(Cl)cc1 [Example 7, (E)-4-fluorostyryl-4-chlorobenzyl sulfone]
CC50 at 24 h [1]: 70 µM
Protection Ratio (HFL-1 cells; 5-fluorouracil 20 µM (DNA antimetabolite)): 1.3
Protection Ratio (HFL-1 cells; camptothecin 0.5 µM (topoisomerase I inhibitor)): 2.1
Protection Ratio (HFL-1 cells; cisplatin 5.0 µM (alkylating agent)): 1.3
Protection Ratio (HFL-1 cells; doxorubicin 0.4 µM (topoisomerase II inhibitor)): 1.5
Protection Ratio (HFL-1 cells; etoposide 3.0 µM (topoisomerase II inhibitor)): 3.5
Protection Ratio (HFL-1 cells; mitoxantrone 0.3 µM (topoisomerase II inhibitor)): 2.0
Protection Ratio (HFL-1 cells; paclitaxel 0.25 µM (antimitotic)): 2.5
Protection Ratio (HFL-1 cells; vincristine 0.25 µM (antimitotic)): 3.0
Cytoprotection (Normal human HFL-1 cells): +

O=S(=O)(/C=C/c1ccc(Cl)cc1)Cc1ccc(Cl)cc1 [Example 8, (E)-4-chlorostyryl-4-chlorobenzyl sulfones]
Cytoprotection (Normal human HFL-1 cells): +

O=S(=O)(/C=C/c1ccc(F)cc1Cl)Cc1ccc(Cl)cc1 [Example 9, (E)-2-chbro-4-fluorostryryl4-chlorobenzl sulfone]
Cytoprotection (Normal human HFL-1 cells): +

O=C(O)c1ccc(/C=C/S(=O)(=O)Cc2ccc(Cl)cc2)cc1 [Example 10, (E)-4-carboxystyryl-chlorobenzyl sulfone]
Cytoprotection (Normal human HFL-1 cells): +

O=S(=O)(/C=C/c1ccc(F)cc1)Cc1ccc(Cl)cc1Cl [Example 11, (E)-4-fluorostyryl-2,4-dichlorobenzyl sulfone]
Cytoprotection (Normal human HFL-1 cells): +

O=C(C(=Cc1ccc(F)cc1)S(=O)(=O)c1ccccc1)c1ccccc1 [Example 12, 2-(phenylsulfonyl)-1-phenyl-3-(4-fluorophenyl)-2-propen-1-one]
Cytoprotection (Normal human HFL-1 cells): +
